The text below walks through data of PubChem BioAssay (NCI).

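Each compound was tested at five concentrations against cells in 96-well plates for 48 hours. TGI is the concentration that stops growth completely.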 Bounds are passed on as bounds.

Some test systems named below: IGROV1 ovarian; MDA-N; LOX IMVI melanoma; SK-OV-3 ovarian; UACC-62 melanoma; HOP-62 NSCLC; A498 renal; HOP-92 NSCLC; SK-MEL-2 melanoma; OVCAR-5 ovarian.
What all share (experiment): inhibition of tumour cell growth, NCI panel, 48 h

In the case of `Oc1cc(Br)cc2cc(Br)cnc12`, the TGI in the test on IGROV1 ovarian is 12.6 µM; in the test on MDA-N, greater than 100 µM; in the test on LOX IMVI melanoma, greater than 100 µM; in the test with SK-OV-3 ovarian it was greater than 100 µM; in the test with UACC-62 melanoma, 5.88 µM; in the test with HOP-62 NSCLC, greater than 100 µM. In addition, the TGI came to 24.2 µM in the test on A498 renal and 83.8 µM with HOP-92 NSCLC.
For `COc1ccc(N2C(=O)CSC2c2cc(OC)c(OC)c(OC)c2)cc1` (stereo not drawn), the TGI is greater than 100 µM in the test with IGROV1 ovarian; 55.9 µM in the test on MDA-N; greater than 100 µM with SK-MEL-2 melanoma; 92.9 µM with LOX IMVI melanoma; 71 µM in the test on SK-OV-3 ovarian; 20.9 µM in the test with UACC-62 melanoma. The TGI was 73.9 µM in the test on OVCAR-5 ovarian, 55.3 µM in the test on A498 renal and greater than 100 µM in the test on HOP-92 NSCLC.
As to `C[N+](C)(C)c1nc(N)nc2c1ncn2C1OC(CO)C(O)C1O` (stereo not drawn), the TGI in the test on IGROV1 ovarian, in the test on MDA-N, in the test with SK-MEL-2 melanoma, in the test with LOX IMVI melanoma, in the test with SK-OV-3 ovarian and in the test with UACC-62 melanoma was greater than 100 µM in each case. In addition, the TGI with OVCAR-5 ovarian, with HOP-62 NSCLC, in the test on A498 renal and in the test on HOP-92 NSCLC was greater than 100 µM each time.
For `NC(=S)N1N=C(c2ccc3c(c2)CCC3)CC1c1ccccc1` (stereo not drawn), the TGI in the test on IGROV1 ovarian was greater than 100 µM; in the test on MDA-N, greater than 100 µM; in the test with SK-MEL-2 melanoma, 36.2 µM; in the test with LOX IMVI melanoma it was greater than 100 µM; with SK-OV-3 ovarian, 88.6 µM; in the test with UACC-62 melanoma it was 74.1 µM. Besides, the TGI in the test with OVCAR-5 ovarian was greater than 100 µM; in the test on HOP-62 NSCLC it was 87 µM; with A498 renal, 29.2 µM; in the test on HOP-92 NSCLC it was 85.7 µM.
Consider `O=C(O)C1(Cc2ccc3c(c2)CCC3)Cc2cc3c(cc2C1)CCC3`, for which the TGI with IGROV1 ovarian, in the test with MDA-N, in the test with SK-MEL-2 melanoma, in the test with LOX IMVI melanoma, in the test with SK-OV-3 ovarian and in the test on UACC-62 melanoma was greater than 100 µM throughout. Further, the TGI in the test on OVCAR-5 ovarian, in the test on A498 renal and in the test with HOP-92 NSCLC was greater than 100 µM throughout.
As to `Cc1nc2ccccc2n1CCc1nc2ccccc2[nH]1`, the TGI in the test with IGROV1 ovarian, with MDA-N, with SK-MEL-2 melanoma, in the test with LOX IMVI melanoma, in the test with SK-OV-3 ovarian and in the test on UACC-62 melanoma was greater than 100 µM throughout. The TGI in the test on OVCAR-5 ovarian, in the test on HOP-62 NSCLC, with A498 renal and with HOP-92 NSCLC was greater than 100 µM in each case.
For the molecule `N#Cc1nc(Cc2cccs2)oc1N`, the TGI in the test on IGROV1 ovarian, in the test on MDA-N, in the test on SK-MEL-2 melanoma, in the test on LOX IMVI melanoma, in the test with SK-OV-3 ovarian and with UACC-62 melanoma was greater than 100 µM in each case. Also, the TGI in the test with OVCAR-5 ovarian, with HOP-62 NSCLC, in the test on A498 renal and with HOP-92 NSCLC was greater than 100 µM each time.
As for `Cc1cc(C(C)(C)C)c(OCCCN2CCOCC2)c(C(C)(C)C)c1`, the TGI turned out to be 34.2 µM with IGROV1 ovarian; 34 µM in the test with MDA-N; 31.3 µM in the test on SK-MEL-2 melanoma; 36.5 µM with LOX IMVI melanoma; 35.6 µM in the test on SK-OV-3 ovarian; 29.8 µM in the test on UACC-62 melanoma. Further, the TGI in the test with OVCAR-5 ovarian amounted to 33 µM; in the test on HOP-62 NSCLC, 38.6 µM; in the test on A498 renal it was 33.4 µM; with HOP-92 NSCLC, 35 µM.
As for `CC(=O)Nc1oc(C)nc1C#N`, the TGI with IGROV1 ovarian, with MDA-N, with SK-MEL-2 melanoma, with LOX IMVI melanoma, in the test on SK-OV-3 ovarian and in the test on UACC-62 melanoma was greater than 100 µM in each case. Moreover, the TGI in the test on OVCAR-5 ovarian, in the test with HOP-62 NSCLC, in the test with A498 renal and with HOP-92 NSCLC was greater than 100 µM each time.
Consider `Cc1ccc2c(=O)c3c(O)c4c(cc3n(C)c2c1)OC(C)(C)C=C4`, for which the TGI with IGROV1 ovarian, with MDA-N, in the test with SK-MEL-2 melanoma, in the test with LOX IMVI melanoma, in the test on SK-OV-3 ovarian and in the test with UACC-62 melanoma was greater than 10 µM in each case. Also, the TGI in the test with OVCAR-5 ovarian, with HOP-62 NSCLC, with A498 renal and in the test on HOP-92 NSCLC was greater than 10 µM each time.
For the molecule `CCn1c2ccccc2c2cc(NC(=O)c3c(C)[nH]c(=O)[nH]c3=S)ccc21`, the TGI in the test on MDA-N is greater than 100 µM; with SK-MEL-2 melanoma, greater than 100 µM; in the test with LOX IMVI melanoma, greater than 100 µM; in the test with SK-OV-3 ovarian, greater than 100 µM; with UACC-62 melanoma, greater than 100 µM; with OVCAR-5 ovarian, 68.2 µM. For the same molecule, the TGI in the test with HOP-62 NSCLC, in the test with A498 renal and in the test on HOP-92 NSCLC was greater than 100 µM each time.
Consider `CC(CN(C)C)C(O)(c1ccccc1)c1ccccc1` (stereo not drawn), for which the TGI with IGROV1 ovarian, with MDA-N, in the test on SK-MEL-2 melanoma, in the test with LOX IMVI melanoma, with SK-OV-3 ovarian and with UACC-62 melanoma was greater than 100 µM in each case. Besides, the TGI in the test on OVCAR-5 ovarian, in the test with HOP-62 NSCLC, in the test on A498 renal and in the test with HOP-92 NSCLC was greater than 100 µM each time.
As for `O=c1oc2ccccc2cc1-c1nc2ccccc2s1`, the TGI was 18.6 µM in the test on IGROV1 ovarian; greater than 61.1 µM in the test with MDA-N; 60.2 µM with SK-MEL-2 melanoma; 24.2 µM with LOX IMVI melanoma; 23.7 µM in the test with SK-OV-3 ovarian; 65.3 µM in the test with OVCAR-5 ovarian. For the same molecule, the TGI in the test with HOP-62 NSCLC is 17.8 µM; with A498 renal, 29.4 µM; in the test on HOP-92 NSCLC, 22.3 µM.
In the case of `COC(=O)C1CC(C=O)=C(SC)N1` (stereo not drawn), the TGI in the test on IGROV1 ovarian, in the test on MDA-N, in the test on SK-MEL-2 melanoma, in the test on SK-OV-3 ovarian, with UACC-62 melanoma and in the test on OVCAR-5 ovarian was greater than 50 µM in each case. The TGI in the test on HOP-62 NSCLC, in the test on A498 renal and in the test with HOP-92 NSCLC was greater than 50 µM in each case.
